# Experimental data: patent US7157487B2, “Vla-4 inhibitors” (Daiichi Pharmaceutical Co., Ltd., priority 2000, dated 2007)
# Target: T1, integrins haα4 and β1 (VLA-4) expressed on CHO cells (Homo sapiens, UniProt P05556+P13612)
# T1 construct: expressed in transfected cells; host or cells: CHO cells
# Test: In vitro Evaluation Test (1): binding of Eu3+-hVCAM-1 D1D7-IgG to CHO cells expressing integrins α4 and β1
# Details: inhibition of Eu3+-hVCAM-1 D1D7-IgG binding to CHO cells expressing α4β1; Ki calculated from IC50
# Protocol: CHO cells forcedly expressed by the transduction of integrins haα4 and β1 were seeded in a Coster 3599 plate (3×10^4 cells/100 μl/well) and they were cultured for 2 days. After the medium was washed with buffer A* twice, 50 μl/well of Eu^3+-hVCAM-1 D1D7-IgG diluted to […] with an assay buffer ** was added. To the resulting well was added 50 μl/well of a test compound diluted with 2% DMS0-assay buffer (in the presence or absence of 6% human serum albumin) (to a well subjected to Scatchard analysis was added a solution diluted in another manner). After stirring for 5 minutes on a plate mixer, the plate was allowed to stand at room temperature for 1 hour. Then, the plate was washed four times with the buffer A and added with 100 μl/well of an enhancement reagent (DELFIA). The plate was shaken for 5 minutes on a plate mixer, followed by measurement of fluorescence intensity by a time-resolved fluorometer (DELFIA Wallac). From the binding ratio available by the following calculation formula: ((FT−FNS)−(FI−FNS))/(FT−FNS)×100, the IC50 (concentration inhibiting 50% of binding of CHO cells with hVCAM-1 D1D7-IgG) of the test compound was determined. In the above formula, FT means the fluorescence intensity of the well free of the test compound, FNS means the fluorescence intensity of the well free of the test compound and anti-hα4 antibody (SG/73), and FI means the fluorescence intensity of the well containing the test compound. The Kd indicating the binding strength and Bmax (maximum binding) were estimated within a range of 0.06 to 20 nM in accordance with the Scatchard analysis method.
# The value Ki was calculated based on:
# [formula] ((L) means a ligand concentration). (* buffer A: 25 mM HEPES (pH 7.5), 150 mM NaCl, 1 mM Ca^2+, 1 MM Mg^2+, 4 mM Mn^2+; ** assay buffer: 25 mM HEPES (pH 7.5), 150 mM NaCl, 1 mM Ca^2+, 1 mM Mg^2+, 4 mM Mn^2+, 0.1% BSA, 20 μM DTPA, with/without 6% ALBUMIN, HUMAN SERUM (C/N A-1653, SIGMA)) In vitro Evaluation Test (2)
# T1 sequence (P13612 34-1032): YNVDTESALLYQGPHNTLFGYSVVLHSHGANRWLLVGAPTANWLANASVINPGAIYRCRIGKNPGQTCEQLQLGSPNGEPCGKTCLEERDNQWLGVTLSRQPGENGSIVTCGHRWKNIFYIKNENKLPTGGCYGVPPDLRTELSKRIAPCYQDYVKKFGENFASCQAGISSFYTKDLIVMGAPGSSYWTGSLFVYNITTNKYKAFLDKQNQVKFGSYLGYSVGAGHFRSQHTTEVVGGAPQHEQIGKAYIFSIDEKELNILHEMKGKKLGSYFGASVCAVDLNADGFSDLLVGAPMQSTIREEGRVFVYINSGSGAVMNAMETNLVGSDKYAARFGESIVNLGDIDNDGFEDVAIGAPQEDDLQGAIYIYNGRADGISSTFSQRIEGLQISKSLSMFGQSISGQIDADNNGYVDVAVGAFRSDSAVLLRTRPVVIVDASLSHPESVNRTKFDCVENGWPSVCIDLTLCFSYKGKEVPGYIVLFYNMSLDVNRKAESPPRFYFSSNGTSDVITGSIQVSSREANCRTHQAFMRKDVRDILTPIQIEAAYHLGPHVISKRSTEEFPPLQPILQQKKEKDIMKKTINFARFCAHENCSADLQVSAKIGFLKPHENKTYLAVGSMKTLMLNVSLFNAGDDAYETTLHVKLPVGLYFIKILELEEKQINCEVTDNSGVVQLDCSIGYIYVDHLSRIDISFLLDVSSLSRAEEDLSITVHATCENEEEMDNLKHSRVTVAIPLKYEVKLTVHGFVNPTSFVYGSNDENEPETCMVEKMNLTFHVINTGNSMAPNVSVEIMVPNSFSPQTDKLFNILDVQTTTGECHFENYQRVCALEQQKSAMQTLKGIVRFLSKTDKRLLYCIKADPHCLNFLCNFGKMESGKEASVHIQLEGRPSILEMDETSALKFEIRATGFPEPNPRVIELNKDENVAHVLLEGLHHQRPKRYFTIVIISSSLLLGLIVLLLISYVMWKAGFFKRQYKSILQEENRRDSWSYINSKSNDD
# T1 sequence (P05556 21-798): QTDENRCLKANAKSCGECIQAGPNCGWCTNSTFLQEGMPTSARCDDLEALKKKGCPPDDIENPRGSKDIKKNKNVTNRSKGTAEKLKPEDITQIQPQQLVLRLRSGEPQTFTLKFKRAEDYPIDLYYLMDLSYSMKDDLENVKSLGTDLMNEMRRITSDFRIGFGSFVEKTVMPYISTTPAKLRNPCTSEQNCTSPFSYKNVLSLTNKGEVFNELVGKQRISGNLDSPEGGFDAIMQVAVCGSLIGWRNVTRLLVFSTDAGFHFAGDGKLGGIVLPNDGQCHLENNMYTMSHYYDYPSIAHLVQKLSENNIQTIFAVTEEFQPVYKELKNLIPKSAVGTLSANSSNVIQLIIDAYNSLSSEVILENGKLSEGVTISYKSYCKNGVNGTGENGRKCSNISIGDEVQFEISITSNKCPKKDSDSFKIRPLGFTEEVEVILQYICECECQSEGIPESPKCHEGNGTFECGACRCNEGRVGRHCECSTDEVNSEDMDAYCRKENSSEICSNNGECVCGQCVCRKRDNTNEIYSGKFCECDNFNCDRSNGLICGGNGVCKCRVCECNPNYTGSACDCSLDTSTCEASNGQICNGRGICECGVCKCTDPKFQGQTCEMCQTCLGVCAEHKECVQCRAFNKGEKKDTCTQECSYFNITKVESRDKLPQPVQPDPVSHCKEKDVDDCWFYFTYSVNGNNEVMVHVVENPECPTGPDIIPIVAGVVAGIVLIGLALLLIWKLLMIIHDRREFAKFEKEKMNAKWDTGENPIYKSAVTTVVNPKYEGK
row,SMILES,Ki
1,"Cn1cc(C(=O)Nc2cc(F)c(CC(=O)N3CC(F)(F)C[C@H]3CO[C@H]3CC[C@H](C(=O)O)CC3)cc2Cl)c2ccccc21 (mixture of isomers) [Example 143, trans-4-(1-(5-Chloro-2-fluoro-4-(1-methyl-3-indolylcarbonylamino)phenylacetyl)-4,4-difluoro-(2S)-pyrrolidinylmethoxy)cyclohexanecarboxylic acid and cis-4-(1-(5-chloro-2-fluoro-4-(1-methyl-3-indolylcarbonylamino)phenylacetyl)-4,4-difluoro-(2S)-pyrrolidinylmethoxy)cyclohexanecarboxylic acid]",0.017 µM
2,"Cn1cc(-c2nc3ccc(CC(=O)N4C[C@@H](F)C[C@H]4CO[C@H]4CC[C@H](C(=O)O)CC4)c(F)c3o2)c2cc(F)ccc21 (relative stereo) [Example 101, trans-4-(1-((2-(5-Fluoro-1-methyl-3-indolyl)-7-fluoro-6-benzoxazolyl)acetyl)-(4S)-fluoro-(2S)-pyrrolidinylmethoxy)cyclohexanecarboxylic acid]",0.0081 µM
3,"CO[C@H]1C[C@@H](CO[C@H]2CC[C@H](C(=O)O)CC2)N(C(=O)Cc2ccc3nc(Nc4ccccc4Cl)oc3c2F)C1 (relative stereo) [Example 114, trans-4-(1-((2-(2-chlorophenylamino)-7-fluoro-6-benzoxazolyl)acetyl)-(4S)-methoxy-(2S)-pyrrolidinylmethoxy)cyclohexanecarboxylic acid]",0.0048 µM
4,"Cc1ccccc1Nc1nc2ccc(CC(=O)N3C[C@@H](F)C[C@H]3COC3CCC(C(=O)O)CC3)cc2o1 (single isomer, unassigned) [21 (Isomer G)]",0.382 µM
5,"Cc1ccccc1Nc1nc2ccc(CC(=O)N3CCC[C@H]3COC3CCC(C(=O)O)CC3)cc2o1 (single isomer, unassigned) [22 (Isomer B)]",0.0035 µM
6,"Cc1ccccc1Nc1nc2ccc(CC(=O)N3C[C@@H](F)C[C@H]3COC3CCC(C(=O)O)CC3)c(F)c2o1 (single isomer, unassigned) [26 (Isomer A)]",0.002 µM
7,O=C(O)c1ccc(OC[C@@H]2C[C@H](F)CN2C(=O)Cc2ccc3nc(Nc4ccccc4)oc3c2)cc1 [Example 1],0.03 µM
8,"Cc1ccccc1Nc1nc2ccc(CC(=O)N3C[C@@H](F)C[C@H]3COc3ccc(C(=O)O)cc3)cc2o1 [Example 2, 4-((4S)-Fluoro-1-(2-(2-methylphenylamino)-6-benzoxazolylacetyl)-(2S)-pyrrolidinylmethoxy)benzoic acid]",0.017 µM
9,"COc1cc(CC(=O)N2C[C@@H](F)C[C@H]2COc2ccc(C(=O)O)cc2)cc2oc(Nc3ccccc3C)nc12 [Example 3, 4-((4S)-Fluoro-1-(4-methoxy-2-(2-methylphenylamino)-6-benzoxazolylacetyl)-(2S)-pyrrolidinylmethoxy)benzoic acid]",0.04 µM
10,"Cc1ccccc1Nc1nc2ccc(CC(=O)N3C[C@@H](F)C[C@H]3COc3ccc(C(=O)O)cc3)c(F)c2o1 [Example 6, 4-((2S,4S)-1-(7-Fluoro-2-(2-methylphenylamino)-6-benzoxazolylacetyl)-4-fluoro-2-pyrrolidinylmethoxy)benzoic acid]",0.014 µM
11,"Cc1ccccc1Nc1nc2ccc(CC(=O)N3C[C@@H](N(C)C)C[C@H]3COc3ccc(C(=O)O)cc3)cc2o1 [Example 7, 4-((4S)-Dimethylamino-1-(2-(2-methylphenylamino)-6-benzoxazolylacetyl)-(2S)-pyrrolidinylmethoxy)benzoic acid]",0.0071 µM
12,"Cc1ccccc1Nc1nc2ccc(CC(=O)N3C[C@@H](O)C[C@H]3COc3ccc(C(=O)O)cc3)cc2o1 [Example 8, 4-((2S,4S)-4-Hydroxy-1-(2-(2-methylphenylamino)-6-benzoxazolylacetyl)-2-pyrrolidinylmethoxy)benzoic acid]",0.024 µM
13,"O=C(O)c1ccc(OC[C@@H]2C[C@H](F)CN2C(=O)Cc2ccc(NC(=O)c3c[nH]c4ccccc34)c(Cl)c2)cc1 [Example 15, 4-(1-(3-Chloro-4-(3-indolylcarbonylamino)phenylacetyl)-(4S)-fluoro-(2S)-pyrrolidinylmethoxy)benzoic acid]",0.0022 µM
14,"Cc1ccccc1Nc1nc2ccc(CC(=O)N3C[C@@H](F)C[C@H]3COc3ccc(C(=O)O)cn3)cc2o1 [Example 18, 6-((4S)-Fluoro-1-(2-(2-methylphenylamino)-6-benzoxazolylacetyl)-(2S)-pyrrolidinylmethoxy)nicotinic acid]",0.0078 µM
15,"Cc1ccccc1Nc1nc2ccc(CC(=O)N3C[C@@H](F)C[C@H]3C(=O)N3CCN(CC(=O)O)CC3)cc2o1 [Example 30, 4-((4S)-Fluoro-1-(2-(2-methylphenylamino)-6-benzoxazolylacetyl)-(2S)-pyrrolidinylcarbonyl)-1-piperazinylacetic acid]",0.04 µM
16,"Cc1ccccc1Nc1nc2ccc(CC(=O)N3C[C@@H](F)C[C@H]3C(=O)N3CCC(CC(=O)O)CC3)cc2o1 [Example 31, 1-((4S)-Fluoro-1-(2-(2-methylphenylamino)-6-benzoxazolylacetyl)-(2S)-pyrrolidinylcarbonyl)-4-piperidinylacetic acid]",0.016 µM
17,"Cc1ccccc1Nc1nc2ccc(CC(=O)N3C[C@@H](F)C[C@H]3CNc3ccc(C(=O)O)cc3)cc2o1 [Example 33, 4-(1-(2-(2-Methylphenylamino)-6-benzoxazolylacetyl)-(4S)-fluoro-(2S)-pyrrolidinylmethylamino)benzoic acid]",0.031 µM
18,"Cc1ccccc1Nc1nc2ccc(CC(=O)N3CC[C@@H](Oc4ccc(C(=O)O)cc4)C3)cc2o1 [Example 34, 4-(1-(2-(2-Methylphenylamino)-6-benzoxazolylacetyl)-(3R)-pyrrolidinyloxy)benzoic acid]",0.026 µM
19,"O=C(Nc1ccc(CC(=O)N2C[C@@H](F)C[C@H]2COC2CCC(C(=O)O)CC2)cc1Cl)c1c[nH]c2ccccc12 (stereo partly drawn) [Example 38, 4-(1-(3-Chloro-4-(3-indolylcarbonylamino)phenylacetyl)-(4S)-fluoro-(2S)-pyrrolidinylmethoxy)cyclohexanecarboxylic acid]",0.00043 µM
20,"Cn1cc(-c2nc3ccc(CC(=O)N4C[C@@H](F)C[C@H]4COC4CCC(C(=O)O)CC4)cc3o2)c2ccccc21 (stereo partly drawn) [Example 40, 4-((4S)-Fluoro-1-(2-(1-methyl-3-indolyl)-6-benzoxazolylacetyl)-(2S)-pyrrolidinylmethoxy)cyclohexanecarboxylic acid]",0.0019 µM
21,"Cc1ccc(F)cc1Nc1nc2ccc(CC(=O)N3C[C@@H](F)C[C@H]3CO[C@H]3CC[C@H](C(=O)O)CC3)cc2o1 [Example 41, trans-4-(1-((2-(5-Fluoro-2-methylphenylamino)-6-benzoxazolyl)acetyl)-(4S)-fluoro-(2S)-pyrrolidinylmethoxy)cyclohexanecarboxylic acid]",0.0038 µM
22,"Cc1cc(F)ccc1Nc1nc2ccc(CC(=O)N3C[C@@H](F)C[C@H]3CO[C@H]3CC[C@H](C(=O)O)CC3)c(F)c2o1 [Example 45, trans-4-(1-((2-(4-Fluoro-2-methylphenylamino)-7-fluoro-6-benzoxazolyl)acetyl)-(4S)-fluoro-(2S)-pyrrolidinylmethoxy)cyclohexanecarboxylic acid]",0.0088 µM
23,"Cc1c(F)cccc1Nc1nc2ccc(CC(=O)N3C[C@@H](F)C[C@H]3CO[C@H]3CC[C@H](C(=O)O)CC3)c(F)c2o1 [Example 46, trans-4-(1-((2-(3-fluoro-2-methylphenylamino)-7-fluoro-6-benzoxazolyl)acetyl)-(4S)-fluoro-(2S)-pyrrolidinylmethoxy)cyclohexanecarboxylic acid]",0.037 µM
24,"Cc1ccc(F)cc1Nc1nc2c(F)cc(CC(=O)N3C[C@@H](F)C[C@H]3CO[C@H]3CC[C@H](C(=O)O)CC3)cc2o1 [Example 47, trans-4-(1-((2-(5-Fluoro-2-methylphenylamino)-4-fluoro-6-benzoxazolyl)acetyl)-(4S)-fluoro-(2S)-pyrrolidinylmethoxy)cyclohexanecarboxylic acid]",0.0058 µM
25,"Cc1cc(CC(=O)N2C[C@@H](F)C[C@H]2CO[C@H]2CC[C@H](C(=O)O)CC2)ccc1Nc1nc2ccccc2o1 [Example 50, trans-4-(1-(4-(2-Benzoxazolyl)amino-3-methylphenylacetyl)-(4S)-fluoro-(2S)-pyrrolidinylmethoxy)cyclohexanecarboxylic acid]",0.013 µM
26,"Cc1cccc2oc(Nc3ccc(CC(=O)N4C[C@@H](F)C[C@H]4CO[C@H]4CC[C@H](C(=O)O)CC4)cc3Cl)nc12 [Example 52, trans-4-(1-(3-Chloro-4-(2-(4-methylbenzoxazolyl))aminophenylacetyl)-(4S)-fluoro-(2S)-pyrrolidinylmethoxy)cyclohexanecarboxylic acid]",0.01 µM
